Molecules are shown by their SMILES.

For this assay, the target named is DNA gyrase (Escherichia coli, UniProt P0AES4+P0AES6). Briefly: Inhibition of DNA gyrase supercoiling in Escherichia coli. It counts as protein-complex assay.
As a reminder, the IC50 is the concentration that inhibits the measured activity by half. A low value points to inhibition by little substance. Take `O=c1oc2cc(O)c(O)cc2c2cc(F)ccc12`: the IC50 is 1500 µM.

On to `Cc1cc(O)c(O)c2oc(=O)c3ccc(F)cc3c12`, for which the IC50 was greater than 1920 µM.

Compound `O=c1oc2c(O)c(O)ccc2c2cc(F)ccc12` had an IC50 of 447 µM.

`O=C1c2cc(O)c(O)cc2-c2cc(O)c(O)cc21` had an IC50 of 53.2 µM.

`O=c1oc2c(O)c(O)cc3c(=O)oc4c(O)c(O)cc1c4c23` [ELLAGIC ACID] showed an IC50 of 156 µM. Against the preceding compound, the IC50 is about 2.9-fold higher.

For the compound `O=c1oc2c(O)c(O)ccc2c2ccccc12`, the IC50 is greater than 2190 µM.

`ONC1c2cc(O)c(O)cc2-c2cc(O)c(O)cc21` had an IC50 of 7.66 µM.

Take `O=c1oc2c(Cl)c(Cl)ccc2c2cc(O)c(O)cc12`: inhibition was half-maximal at 942 µM (IC50).

Compound `Cc1cc(O)c(O)c2oc(=O)c3cc(O)c(O)cc3c12` had an IC50 of 511 µM.

`O=c1oc2cc(O)c(O)cc2c2cc(O)c(O)cc12` had a concentration for half-maximal inhibition (IC50) of 307 µM.

In the case of `O=c1oc2c(O)c(O)ccc2c2cc(O)c(O)cc12`, the IC50 was 500 µM.

Regarding `O=c1oc2ccccc2c2ccccc12`, the IC50 is greater than 2550 µM.

`O=c1oc2c(O)c(O)ccc2c2ccc(O)cc12` showed an IC50 of 328 µM.

In the case of `O=c1oc2c(F)c(F)ccc2c2cc(O)c(O)cc12`, the IC50 is 151 µM.

Compound `O=c1oc2ccccc2c2cc(O)c(O)cc12` registered an IC50 greater than 2190 µM.

Values taken from ChEMBL document CHEMBL1130981, “DNA gyrase inhibitory activity of ellagic acid derivatives” (Bioorg Med Chem Lett, 1998).
